# How the values were obtained:
# [1] = In vitro diffusion of IFN-α into human skin, flow-through diffusion cells, antiviral bioassay of skin homogenate; settings: Biphasic lipid vesicles + acylated amino acid + IFN-α, 24 hours, n = 4
# [2] = guinea pigs, lipid vesicle patch 24 hours, FIG. 1A, vs untreated control animals
# [3] = tested on: 2-5A synthetase; experiment: 2-5A synthetase enzyme activity in PBMC of treated human subjects; format: in vivo; settings: all three treatment groups compared to their untreated controls (p<0.05)
# Method: The experimental protocol is set forth in Example 5C.
# Induction of 2-5A synthetase enzyme activity in peripheral blood mononuclear cells (PBMC) was used as an indication for the systemic delivery of IFN-α from biphasic delivery systems.
# 2-5A synthetase was determined by a ^125I-2-5A radioimmuno assay kit (Eiken Chemical Corp., Tokyo, Japan) using rabbit anti-human 2-5A antibody and goat antirabbit IgG as secondary antibody. Briefly, 2-5A synthetase was extracted from the samples by poly (I) poly (C) agarose for 10 min. After the addition of ATP solution (24 μg/mL) and incubation, 100 μL ^125I-2-5A was added, followed by the primary and secondary antibody. Radioactivity bound was determined by gamma counting. 2-5A synthetase is measured as pmol 2-5A produced/100 mL/h and subsequently expressed as nmole enzyme/mg protein 1 h in skin homogenate. All samples were run in duplicates.
# [4] = Immunohistochemistry of skin biopsies with anti-IFN-α antibodies; format: in vivo, human; settings: 40 MU group, treated skin site vs untreated skin
# Source text: The skin biopsy taken from the site of application of the biphasic lipid vesicle-containing transdermal patch of each test subject was processed for immunohistochemistry. A skin sample from a representative individual in the treatment group receiving 40 MU IFN-α was compared visually to a skin section of control, untreated skin after staining both samples with anti-IFN-α antibodies. […] This staining pattern was characteristic in all volunteers in this treatment group.
# Sections 5 μm in thickness were cut and after antigen retrieval with 10 mM Na-citrate the sections were incubated with mouse anti-human interferon alpha antibody (1:2,000-1:5,000), which were in turn treated with a biotinylated rabbit anti-mouse secondary antibody and stained by the Avidin Biotin Complex (ABC) method.
# [5] = Antiviral activity in serum of human subjects after transdermal patch; settings: individual subjects in each treatment group (5, 15, 40 MU), before vs after 48 hours patch, FIGS. 4A-4C
# [6] = human, in vivo
# Method: The human subjects were divided randomly into three groups for treatment with a transdermal patch containing a lipid vesicle compositions at one of the three IFN-α concentrations. […] After treatment with the placebo, skin biopsies and blood samples were collected from each subject. In Phase II of the study, each subject was treated with a transdermal patch containing IFN-α entrapped in biphasic lipid vesicles at one of the three concentrations: 5 MU/g formulation/patch, 15 MU/g formulation/patch or 40 MU/g formulation/patch. After treatment for 48 hours, skin biopsies and blood samples were taken and analyzed. The biopsy samples were analyzed by immunohistochemistry, antiviral assay, ELISA and 2-5A synthetase assays. The blood samples were used to prepare serum for the antiviral and ELISA assays and to extract peripheral blood mononuclear cells for the 2-5A synthetase assay.
# To determine IFN-α concentration in skin homogenates, Cytoscreen™ ELISA kit (Medicorp, Montreal, PQ) was used. The sensitivity of the assay is <25 pg/mL and the range of concentration is 0-500 pg/mL. The assay is specific for human IFN-α with no cross-reactivity with human IFNβ, IFNγ or IFNω. The results are expressed as pg IFN-α/mg skin.
# Seventeen human volunteers were randomized into three treatment groups. […]
# [7] = tested on: Ki67 nuclear protein in proliferating cells; experiment: Anti-proliferation assay on skin sections of human volunteers (Ki67 staining); format: in vivo; settings: for Average % decrease of proliferative cells stained by anti-Ki67 antibody: 48 hours
# Source text: Skin sections were also stained for Ki67 nuclear protein in proliferating cells using anti-M1B1 monoclonal antibodies (Rose et al., J. Clin. Pathol., 47:1010 (1994)) and visualized.
# The number of stained cells were counted before and after treatment sections. The decreased number of stained cells were expressed as a percentage.
compound,measurement,setting,value
"CCCCCCCCCCCC(=O)NCCCC[C@H](N)C(=O)O [MLL, Lauroyl lysine]",Average Amount of IFN-α in skin,[1],250 ± 112 U/mg protein
"CCCCCCCC(=O)N[C@H](C(=O)OC)[C@@H](C)O [PDM1, N-capryloyl-L-threonine methyl ester]",Average Amount of IFN-α in skin,[1],290 ± 172 U/mg protein
"CCCCCCCCCCCCCCCCCCCC(=O)N[C@@H](CO)C(=O)O [PDM3, N-eicosanoyl-L-serine]",Average Amount of IFN-α in skin,[1],2022 ± 1046 U/mg protein
same,serum antiviral activity / transdermal skin penetration (in words),[2],significant increase
"CCCCCCCCCCCCCCCCCCCC(=O)N[C@H](C(=O)O)[C@@H](C)O [PDM4, N-eicosanoyl threonine]",Average Amount of IFN-α in skin,[1],1707 ± 538 U/mg protein
"CCCCCCCCCCCCCCCC(=O)N[C@@H](CCCCNC(=O)CCCCCCCCCCC)C(=O)OC [PDM17, Nα-palmitoyl-Nε Lauroyl-L- lysine methyl ester]",Average Amount of IFN-α in skin,[1],540 ± 239 U/mg protein
"CCCCCCCCCCCC(=O)NCCCC[C@H](NC(=O)CCCCCCCCCCC)C(=O)OC [PDM18, Nα lauroyl-Nε Lauroyl-L- lysine methyl ester]",Average Amount of IFN-α in skin,[1],84 ± 52 U/mg protein
IFN-α,induction in 2-5A synthetase enzyme activity (in words),[3],significant induction
same,IFN-α specific immunostaining of skin section (in words),[4],"IFN-α specific immunostaining throughout the stratum corneum, epidermis and dermis"
same,serum antiviral activity (in words),[5],significant increase
same,further increase in IFN-α levels in skin homogenates (in words),[6],No significant further increase
same,increase in IFN-α levels in post-treatment skin homogenates (ELISA),[6],3 fold
same,Average % decrease of proliferative cells stained by anti-Ki67 antibody,"[7]; Dose 5 MU, compared to placebo treated skin",14%
same,anti-proliferative ratio,"[7]; Dose 5 MU, proliferating cells in placebo treated skin / after treatment",1.21
same,Average % decrease of proliferative cells stained by anti-Ki67 antibody,"[7]; Dose 15 MU, compared to placebo treated skin",10%
same,anti-proliferative ratio,"[7]; Dose 15 MU, proliferating cells in placebo treated skin / after treatment",1.32
same,Average % decrease of proliferative cells stained by anti-Ki67 antibody,"[7]; Dose 40 MU, compared to untreated skin",38%
same,anti-proliferative ratio,"[7]; Dose 40 MU, proliferating cells in untreated skin / after treatment",2
same,"Ki67 staining of skin sections, anti-proliferative effect (in words)",[7]; skin treated with IFN-α,decreased staining
